Columns and labels:
Experiment in all cases: KINOMEscan
Format in all cases: binding
AMPK-alpha2 = AMPK-alpha2 (Homo sapiens, UniProt P54646); conditions: 1 μM of compound 4; read-out: POC
CAMK2G = CAMK2G (Homo sapiens, UniProt Q13555); conditions: 1 μM of compound 4; read-out: POC
TEC = target: T1, TEC (Homo sapiens, UniProt P42680); conditions: 1 μM of compound 4; read-out: POC
T1 construct: purchased Eurofins DiscoverX Corporation

PKNB(M. tuberculosis) = PKNB(M. tuberculosis) (Mycobacterium tuberculosis, UniProt P9WI81); conditions: 1 μM of compound 4; read-out: POC
FLT3(ITD + F691L) = conditions: 1 μM of compound 4
ABL2 = target: T2, ABL2 (Homo sapiens, UniProt P42684); conditions: 1 μM of compound 4; read-out: POC
T2 construct: purchased Eurofins DiscoverX Corporation

IKK-alpha = IKK-alpha (Homo sapiens, UniProt O15111); conditions: 1 μM of compound 4; read-out: POC
CDKL3 = CDKL3 (Homo sapiens, UniProt Q8IVW4); conditions: 1 μM of compound 4; read-out: POC
[1] = target: T3, RSK1(Kin.Dom.1-N-terminal) (Homo sapiens, UniProt Q15418); conditions: 1 μM of compound 4; read-out: POC
T3 construct: RSK1(Kin.Dom.1-N-terminal); purchased Eurofins DiscoverX Corporation (KINOMEscan screening service)

DAPK1 = DAPK1 (Homo sapiens, UniProt P53355); conditions: 1 μM of compound 4; read-out: POC
GRK7 = target: T4, GRK7 (Homo sapiens, UniProt Q8WTQ7); conditions: 1 μM of compound 4; read-out: POC
T4 construct: purchased Eurofins DiscoverX Corporation

ASK2 = ASK2 (Homo sapiens, UniProt O95382); conditions: 1 μM of compound 4; read-out: POC
[2] = target: T5, ABL1(F317L)-nonphosphorylated (Homo sapiens, UniProt P00519, F317L); conditions: 1 μM of compound 4; read-out: POC
T5 construct: purchased Eurofins DiscoverX Corporation

TRKB = target: T6, TRKB (Homo sapiens, UniProt Q16620); conditions: 1 μM of compound 4; read-out: POC
T6 construct: purchased Eurofins DiscoverX Corporation

DAPK3 = DAPK3 (Homo sapiens, UniProt O43293); conditions: 1 μM of compound 4; read-out: POC
PIK3C2G = PIK3C2G (Homo sapiens, UniProt O75747); conditions: 1 μM of compound 4; read-out: POC
TLK2 = target: T7, TLK2 (Homo sapiens, UniProt Q86UE8); conditions: 1 μM of compound 4; read-out: POC
T7 construct: purchased Eurofins DiscoverX Corporation

MKNK1 = MKNK1 (Homo sapiens, UniProt Q9BUB5); conditions: 1 μM of compound 4; read-out: POC
ERK2 = target: T8, ERK2 (Homo sapiens, UniProt P28482); conditions: 1 μM of compound 4; read-out: POC
T8 construct: purchased Eurofins DiscoverX Corporation

NIM1 = target: T9, NIM1 (Homo sapiens, UniProt Q8IY84); conditions: 1 μM of compound 4; read-out: POC
T9 construct: purchased Eurofins DiscoverX Corporation (KINOMEscan)

CDKL1 = CDKL1 (Homo sapiens, UniProt Q00532); conditions: 1 μM of compound 4; read-out: POC
YSK1 = target: T10, YSK1 (Homo sapiens, UniProt O00506); conditions: 1 μM of compound 4; read-out: POC
T10 construct: purchased Eurofins DiscoverX

IRAK1 = IRAK1 (Homo sapiens, UniProt P51617); conditions: 1 μM of compound 4; read-out: POC
[3] = target: T11, ABL1(T315I)-nonphosphorylated (Homo sapiens, UniProt P00519, T315I); conditions: 1 μM of compound 4; read-out: POC
T11 construct: purchased Eurofins DiscoverX Corporation

ADCK3 = ADCK3 (Homo sapiens, UniProt Q8NI60); conditions: 1 μM of compound 4; read-out: POC
DDR1 = DDR1 (Homo sapiens, UniProt Q08345); conditions: 1 μM of compound 4; read-out: POC
NEK5 = NEK5 (Homo sapiens, UniProt Q6P3R8); conditions: 1 μM of compound 4; read-out: POC
MST2 = MST2 (Homo sapiens, UniProt Q13188); conditions: 1 μM of compound 4; read-out: POC
KIT-autoinhibited = KIT-autoinhibited (Homo sapiens, UniProt P10721); conditions: 1 μM of compound 4; read-out: POC
PRKG2 = PRKG2 (Homo sapiens, UniProt Q13237); conditions: 1 μM of compound 4; read-out: POC
IGF1R = IGF1R (Homo sapiens, UniProt P08069); conditions: 1 μM of compound 4; read-out: POC
MARK4 = MARK4 (Homo sapiens, UniProt Q96L34); conditions: 1 μM of compound 4; read-out: POC
RAF1 = target: T12, RAF1 (Homo sapiens, UniProt P04049); conditions: 1 μM of compound 4; read-out: POC
T12 construct: purchased Eurofins DiscoverX Corporation (KINOMEscan screening service)

CDK2 = CDK2 (Homo sapiens, UniProt P24941); conditions: 1 μM of compound 4; read-out: POC
MARK3 = MARK3 (Homo sapiens, UniProt P27448); conditions: 1 μM of compound 4; read-out: POC
NEK2 = NEK2 (Homo sapiens, UniProt P51955); conditions: 1 μM of compound 4; read-out: POC
GAK = target: T13, GAK (Homo sapiens, UniProt O14976); conditions: 1 μM of compound 4; read-out: POC
T13 construct: purchased Eurofins DiscoverX Corporation

AKT2 = AKT2 (Homo sapiens, UniProt P31751); conditions: 1 μM of compound 4; read-out: POC
CDK3 = CDK3 (Homo sapiens, UniProt Q00526); conditions: 1 μM of compound 4; read-out: POC

IKK-alpha, sequence (O15111 whole entry): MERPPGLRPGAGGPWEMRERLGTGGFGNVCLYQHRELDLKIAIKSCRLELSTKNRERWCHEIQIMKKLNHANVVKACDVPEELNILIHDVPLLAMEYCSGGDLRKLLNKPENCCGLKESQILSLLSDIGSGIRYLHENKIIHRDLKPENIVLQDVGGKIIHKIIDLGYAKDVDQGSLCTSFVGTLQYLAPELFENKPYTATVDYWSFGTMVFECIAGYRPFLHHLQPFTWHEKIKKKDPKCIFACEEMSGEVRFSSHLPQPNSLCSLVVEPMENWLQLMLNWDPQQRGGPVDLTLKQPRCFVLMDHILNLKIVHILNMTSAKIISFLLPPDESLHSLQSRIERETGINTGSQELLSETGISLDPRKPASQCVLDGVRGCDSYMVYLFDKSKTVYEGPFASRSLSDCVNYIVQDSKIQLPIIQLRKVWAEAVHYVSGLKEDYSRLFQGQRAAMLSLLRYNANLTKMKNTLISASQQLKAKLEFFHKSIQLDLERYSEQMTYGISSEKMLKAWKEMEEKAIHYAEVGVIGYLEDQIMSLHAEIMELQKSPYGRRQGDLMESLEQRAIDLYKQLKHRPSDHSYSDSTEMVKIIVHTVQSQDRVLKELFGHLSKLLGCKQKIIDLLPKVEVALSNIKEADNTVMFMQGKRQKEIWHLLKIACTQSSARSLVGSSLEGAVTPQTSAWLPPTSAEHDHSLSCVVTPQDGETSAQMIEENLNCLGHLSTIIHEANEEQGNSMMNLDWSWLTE
AMPK-alpha2, sequence (P54646 whole entry): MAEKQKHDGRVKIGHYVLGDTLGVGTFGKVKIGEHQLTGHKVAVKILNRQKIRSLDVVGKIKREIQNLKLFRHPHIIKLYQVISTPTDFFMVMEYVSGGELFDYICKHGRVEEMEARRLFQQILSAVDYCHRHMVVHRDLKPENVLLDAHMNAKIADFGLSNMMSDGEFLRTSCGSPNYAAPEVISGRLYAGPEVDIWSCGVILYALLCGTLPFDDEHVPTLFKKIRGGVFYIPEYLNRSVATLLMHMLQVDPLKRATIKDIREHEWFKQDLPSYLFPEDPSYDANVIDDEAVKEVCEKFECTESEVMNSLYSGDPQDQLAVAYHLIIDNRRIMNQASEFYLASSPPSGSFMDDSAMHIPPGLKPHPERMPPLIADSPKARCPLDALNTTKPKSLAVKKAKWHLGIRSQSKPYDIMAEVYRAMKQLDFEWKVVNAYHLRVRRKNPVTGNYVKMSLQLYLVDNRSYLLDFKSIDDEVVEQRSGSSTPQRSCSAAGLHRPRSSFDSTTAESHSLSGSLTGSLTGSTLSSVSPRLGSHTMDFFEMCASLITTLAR
T6 sequence (Q16620 32-822): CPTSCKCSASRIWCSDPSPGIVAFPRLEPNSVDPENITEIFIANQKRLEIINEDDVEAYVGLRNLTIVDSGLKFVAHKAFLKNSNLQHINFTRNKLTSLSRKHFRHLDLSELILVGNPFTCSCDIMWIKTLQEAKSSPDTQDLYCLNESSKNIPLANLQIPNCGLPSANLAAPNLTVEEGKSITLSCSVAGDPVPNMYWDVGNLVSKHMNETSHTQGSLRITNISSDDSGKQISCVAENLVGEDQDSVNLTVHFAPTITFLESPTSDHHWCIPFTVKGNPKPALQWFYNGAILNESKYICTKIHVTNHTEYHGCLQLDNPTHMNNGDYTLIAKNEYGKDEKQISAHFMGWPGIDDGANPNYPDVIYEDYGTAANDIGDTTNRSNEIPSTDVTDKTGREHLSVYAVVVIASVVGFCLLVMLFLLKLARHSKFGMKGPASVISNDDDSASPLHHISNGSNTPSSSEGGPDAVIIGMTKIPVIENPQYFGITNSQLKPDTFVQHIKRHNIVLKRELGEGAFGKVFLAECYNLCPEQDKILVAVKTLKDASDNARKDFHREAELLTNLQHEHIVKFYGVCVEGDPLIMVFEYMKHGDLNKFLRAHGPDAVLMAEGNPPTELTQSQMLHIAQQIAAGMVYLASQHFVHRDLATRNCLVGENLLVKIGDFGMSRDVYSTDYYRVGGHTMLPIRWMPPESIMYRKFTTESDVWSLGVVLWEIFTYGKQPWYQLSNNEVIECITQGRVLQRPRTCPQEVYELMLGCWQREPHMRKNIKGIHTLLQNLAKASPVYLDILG
T1 sequence (P42680 whole entry): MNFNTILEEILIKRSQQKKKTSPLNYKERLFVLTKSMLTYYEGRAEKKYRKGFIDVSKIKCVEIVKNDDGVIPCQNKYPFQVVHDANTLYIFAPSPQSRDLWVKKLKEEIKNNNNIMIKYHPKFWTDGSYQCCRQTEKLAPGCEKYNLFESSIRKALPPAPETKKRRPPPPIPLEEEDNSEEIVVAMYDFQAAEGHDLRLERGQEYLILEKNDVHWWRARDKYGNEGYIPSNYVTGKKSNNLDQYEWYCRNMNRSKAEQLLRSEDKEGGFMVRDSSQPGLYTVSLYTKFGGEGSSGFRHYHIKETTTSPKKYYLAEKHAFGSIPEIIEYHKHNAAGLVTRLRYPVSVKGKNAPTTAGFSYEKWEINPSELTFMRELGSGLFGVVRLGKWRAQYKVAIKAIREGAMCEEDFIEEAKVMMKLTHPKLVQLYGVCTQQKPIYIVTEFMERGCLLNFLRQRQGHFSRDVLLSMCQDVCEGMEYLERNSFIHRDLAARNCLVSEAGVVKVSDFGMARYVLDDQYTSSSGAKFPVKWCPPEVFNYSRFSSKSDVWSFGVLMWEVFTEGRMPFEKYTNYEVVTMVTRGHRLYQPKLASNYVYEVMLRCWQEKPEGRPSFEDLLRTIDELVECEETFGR
NEK2, sequence (P51955 whole entry): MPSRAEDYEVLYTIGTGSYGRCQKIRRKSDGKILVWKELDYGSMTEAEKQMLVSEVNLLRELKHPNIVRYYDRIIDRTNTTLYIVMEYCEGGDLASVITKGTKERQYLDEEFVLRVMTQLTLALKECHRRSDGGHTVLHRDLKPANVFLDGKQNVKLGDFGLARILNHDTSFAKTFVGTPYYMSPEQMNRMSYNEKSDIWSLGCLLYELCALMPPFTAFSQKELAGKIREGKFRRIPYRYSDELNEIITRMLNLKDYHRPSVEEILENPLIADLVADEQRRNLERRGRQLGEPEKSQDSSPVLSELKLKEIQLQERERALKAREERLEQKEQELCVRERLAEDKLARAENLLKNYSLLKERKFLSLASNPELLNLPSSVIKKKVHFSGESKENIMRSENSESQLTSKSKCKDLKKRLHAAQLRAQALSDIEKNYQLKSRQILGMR
T2 sequence (P42684 whole entry): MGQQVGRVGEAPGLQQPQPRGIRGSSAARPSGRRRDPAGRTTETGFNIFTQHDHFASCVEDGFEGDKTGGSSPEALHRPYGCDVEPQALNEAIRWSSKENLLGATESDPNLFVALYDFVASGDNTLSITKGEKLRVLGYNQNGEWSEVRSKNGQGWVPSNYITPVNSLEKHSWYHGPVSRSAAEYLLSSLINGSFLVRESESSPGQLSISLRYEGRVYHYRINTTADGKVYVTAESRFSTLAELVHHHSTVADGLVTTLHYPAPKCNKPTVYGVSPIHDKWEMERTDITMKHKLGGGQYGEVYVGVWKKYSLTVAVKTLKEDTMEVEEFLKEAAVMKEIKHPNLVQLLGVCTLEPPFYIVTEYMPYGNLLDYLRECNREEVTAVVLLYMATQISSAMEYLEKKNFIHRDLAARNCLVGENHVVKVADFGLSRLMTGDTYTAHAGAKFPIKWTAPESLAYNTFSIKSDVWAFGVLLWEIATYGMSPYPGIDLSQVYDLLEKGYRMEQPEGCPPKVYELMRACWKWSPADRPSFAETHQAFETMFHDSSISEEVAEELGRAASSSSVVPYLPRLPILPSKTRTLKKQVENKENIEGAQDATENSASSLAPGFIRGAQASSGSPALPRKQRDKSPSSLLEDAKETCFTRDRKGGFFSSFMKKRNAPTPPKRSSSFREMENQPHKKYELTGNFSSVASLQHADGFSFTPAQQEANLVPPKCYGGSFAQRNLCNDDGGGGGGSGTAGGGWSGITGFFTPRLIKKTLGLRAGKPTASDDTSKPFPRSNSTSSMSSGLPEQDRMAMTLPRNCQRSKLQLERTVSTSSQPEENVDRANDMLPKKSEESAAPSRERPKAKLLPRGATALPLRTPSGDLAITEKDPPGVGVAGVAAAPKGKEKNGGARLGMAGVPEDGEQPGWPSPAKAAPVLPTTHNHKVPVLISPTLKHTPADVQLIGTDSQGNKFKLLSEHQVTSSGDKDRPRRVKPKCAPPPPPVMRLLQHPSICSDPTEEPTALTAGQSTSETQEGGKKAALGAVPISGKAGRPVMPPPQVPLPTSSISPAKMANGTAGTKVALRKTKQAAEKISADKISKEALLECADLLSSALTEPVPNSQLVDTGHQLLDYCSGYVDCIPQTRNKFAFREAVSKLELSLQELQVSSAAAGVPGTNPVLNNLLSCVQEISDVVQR
MKNK1, sequence (Q9BUB5 whole entry): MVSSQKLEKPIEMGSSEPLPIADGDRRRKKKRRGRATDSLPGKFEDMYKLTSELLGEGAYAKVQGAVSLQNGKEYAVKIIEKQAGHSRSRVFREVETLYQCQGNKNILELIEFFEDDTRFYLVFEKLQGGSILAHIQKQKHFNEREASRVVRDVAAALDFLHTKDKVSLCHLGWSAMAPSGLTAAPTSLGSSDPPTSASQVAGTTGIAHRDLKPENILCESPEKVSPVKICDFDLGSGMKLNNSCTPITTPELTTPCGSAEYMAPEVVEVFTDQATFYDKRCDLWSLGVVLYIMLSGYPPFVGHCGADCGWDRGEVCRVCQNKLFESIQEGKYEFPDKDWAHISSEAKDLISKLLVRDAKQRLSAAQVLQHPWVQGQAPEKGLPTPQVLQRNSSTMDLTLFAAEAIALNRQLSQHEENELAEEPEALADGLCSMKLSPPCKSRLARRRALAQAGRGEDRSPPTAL

## C=CC(=O)Nc1ccc(OC)c(Nc2cc(-c3[nH]c(CC)nc3-c3cccc(NC(=O)c4cccc5c4NC(=O)c4ccccc4N5)c3)ccn2)c1 [Compound 4, N-(3-(5-(2-((5-Acrylamido-2-methoxyphenyl)amino)pyridin-4-yl)-2-ethyl-1H-imidazol-4-yl)phenyl)-11-oxo-10,11-dihydro-5H-dibenzo[b,e][1,4]diazepine-9-carboxamide]
AMPK-alpha2
  remaining binding at 1 µM: 56%
CAMK2G
  remaining binding at 1 µM: 100%
TEC
  remaining binding at 1 µM: 45%
PKNB(M. tuberculosis)
  remaining binding at 1 µM: 97%
FLT3(ITD + F691L)
  POC: 79
ABL2
  remaining binding at 1 µM: 92%
IKK-alpha
  remaining binding at 1 µM: 100%
CDKL3
  remaining binding at 1 µM: 100%
[1]
  remaining binding at 1 µM: 4.7%
DAPK1
  remaining binding at 1 µM: 86%
GRK7
  remaining binding at 1 µM: 99%
ASK2
  remaining binding at 1 µM: 100%
[2]
  remaining binding at 1 µM: 37%
TRKB
  remaining binding at 1 µM: 100%
DAPK3
  remaining binding at 1 µM: 62%
PIK3C2G
  remaining binding at 1 µM: 50%
TLK2
  remaining binding at 1 µM: 87%
MKNK1
  remaining binding at 1 µM: 100%
ERK2
  remaining binding at 1 µM: 100%
NIM1
  remaining binding at 1 µM: 78%
CDKL1
  remaining binding at 1 µM: 100%
YSK1
  remaining binding at 1 µM: 76%
IRAK1
  remaining binding at 1 µM: 85%
[3]
  remaining binding at 1 µM: 98%
ADCK3
  remaining binding at 1 µM: 100%
DDR1
  remaining binding at 1 µM: 90%
NEK5
  remaining binding at 1 µM: 100%
MST2
  remaining binding at 1 µM: 14%
KIT-autoinhibited
  remaining binding at 1 µM: 100%
PRKG2
  remaining binding at 1 µM: 62%
IGF1R
  remaining binding at 1 µM: 90%
MARK4
  remaining binding at 1 µM: 92%
RAF1
  remaining binding at 1 µM: 73%
CDK2
  remaining binding at 1 µM: 95%
MARK3
  remaining binding at 1 µM: 100%
NEK2
  remaining binding at 1 µM: 98%
GAK
  remaining binding at 1 µM: 16%
AKT2
  remaining binding at 1 µM: 91%
CDK3
  remaining binding at 1 µM: 100%
